The assay relates to HRE-bla ME-180 cells. In words: Reporter gene assay (HRE-bla ME-180 HIF reporter, GeneBLAzer). Type of assay: cell-based, human. The note with it: for EC50: 24 hour normoxia. The method, boiled down: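 A FRET β-lactamase readout of HIF transcription was used. After compound treatment in 0.3% DMSO/media under normoxic conditions, 20 μl of 6× LiveBLAzer-FRET B/G (CCF4-AM) substrate was added. Plates sat 3 hr at room temperature in the dark and were read at 409 Ex/460Em and 409Ex/530Em on a Synergy 2. Inhibition was compared against DMSO vehicle controls, with chetomin as positive control.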

Bridge positions count the residues as written; N and C are the ends. Square brackets hold non-standard residues; d marks the D form. Peptide text beside a SMILES is read from it. R8 = C=CCCCCCC[C@@](C)(N)C(=O)O; S5 = C=CCCC[C@](C)(N)C(=O)O; Nle = CCCC[C@H](N)C(=O)O; Dap = NC[C@H](N)C(=O)O

In general, EC50 refers to the concentration that produces a half-maximal response. With `CCCC[C@H](NC(=O)[C@H](CC(C)C)NC(=O)[C@@H](NC(=O)[C@H](CCC(=O)O)NC(=O)[C@H](CCC(=O)O)NC(=O)[C@H](CC(=O)O)NC(=O)[C@@H](NC(=O)[C@H](Cc1ccccc1)NC(C)=O)[C@@H](C)CC)C(C)C)C(=O)N[C@@]1(C)CCCC=CCCC[C@@](C)(C(=O)N[C@@H](CCCC)C(=O)NCC(=O)N[C@@H](CC(C)C)C(=O)N[C@@H](CC(=O)O)C(=O)N[C@@H](CCCNC(=N)N)C(=O)N[C@H](C(N)=O)[C@@H](C)CC)NC(=O)[C@H]([C@@H](C)CC)NC(=O)[C@H](C(C)C)NC(=O)[C@H](CC(C)C)NC1=O` [SP-21] (Ac-FIDEEVL[Nle][S5]LVI[S5][Nle]GLDRI-NH2; staple 9-13), the “18 h Avg % max inhibition at top conc (HIF Rptr-24 hrs normoxia) (μM)” value (shortened to “18 h Avg % max inhibition at top conc”) is reported as “++++ (≥50: ++++)” and the EC50 was in the range of 5 to 15 µM.

Turning to `CCCC[C@H](NC(=O)[C@H](CC(C)C)NC(=O)[C@@H](NC(=O)[C@H](CCC(=O)O)NC(=O)[C@H](CCC(=O)O)NC(=O)[C@H](CN)NC(=O)[C@@H](NC(=O)[C@H](Cc1ccccc1)NC(C)=O)[C@@H](C)CC)C(C)C)C(=O)N[C@@]1(C)CCCC=CCCC[C@@](C)(C(=O)N[C@@H](CCCC)C(=O)N[C@@H](C)C(=O)N[C@@H](CC(C)C)C(=O)N[C@@H](CC(=O)O)C(=O)N[C@@H](CCCNC(=N)N)C(=O)N[C@H](C(N)=O)[C@@H](C)CC)NC(=O)[C@H]([C@@H](C)CC)NC(=O)[C@H](C(C)C)NC(=O)[C@H](CC(C)C)NC1=O` [SP-62] (Ac-FI[Dap]EEVL[Nle][S5]LVI[S5][Nle]ALDRI-NH2; staple 9-13), the “18 h Avg % max inhibition at top conc” value is recorded as “++ (≤10 but <25: ++)” and the EC50 was > 30 µM.

For `CCCC[C@H](NC(=O)[C@H](CC(C)C)NC(=O)[C@@H](NC(=O)[C@H](CCC(=O)O)NC(=O)[C@H](CCC(=O)O)NC(=O)[C@H](C)NC(=O)[C@@H](NC(=O)[C@H](Cc1ccccc1)NC(C)=O)[C@@H](C)CC)C(C)C)C(=O)N[C@@]1(C)CCCC=CCCC[C@@](C)(C(=O)N[C@@H](CCCC)C(=O)N[C@@H](C)C(=O)N[C@@H](CC(C)C)C(=O)N[C@@H](CC(=O)O)C(=O)N[C@@H](CCCNC(=N)N)C(=O)N[C@H](C(N)=O)[C@@H](C)CC)NC(=O)[C@H]([C@@H](C)CC)NC(=O)[C@H](C(C)C)NC(=O)[C@H](CC(C)C)NC1=O` [SP-11] (Ac-FIAEEVL[Nle][S5]LVI[S5][Nle]ALDRI-NH2; staple 9-13), the “18 h Avg % max inhibition at top conc” value is on record as “++++ (≥50: ++++)” and the EC50 was 5 to 15 µM.

In the case of `CC[C@H](C)[C@H](NC(=O)[C@H](Cc1ccccc1)NC(C)=O)C(=O)N[C@@H](CC(=O)O)C(=O)N[C@@H](CCC(=O)O)C(=O)N[C@]1(C)CCCCCCC=CCCC[C@@](C)(C(=O)N[C@@H](CCC(=O)O)C(=O)N[C@@H](CCSC)C(=O)NCC(=O)N[C@@H](CC(C)C)C(=O)N[C@@H](CC(=O)O)C(=O)N[C@@H](CCCNC(=N)N)C(=O)N[C@H](C(=O)N[C@@H](CCCCN)C(=O)N[C@@H](CCC(=O)O)C(=O)N[C@@H](CC(C)C)C(=O)N2CCC[C@H]2C(=O)N[C@@H](CCC(=O)O)C(=O)N[C@@H](CC(C)C)C(=O)N[C@@H](Cc2c[nH]c3ccccc23)C(=O)N[C@@H](CC(C)C)C(N)=O)[C@@H](C)CC)NC(=O)[C@H](C(C)C)NC(=O)[C@H](CC(C)C)NC(=O)[C@H](CO)NC(=O)[C@H](CCSC)NC(=O)[C@H](CC(C)C)NC(=O)[C@H](C(C)C)NC1=O` [SP-82] (Ac-FIDE[R8]VLMSLV[S5]EMGLDRIKELPELWL-NH2; staple 5-12), the “18 h Avg % max inhibition at top conc” value was “+ (<10: +)” and the EC50 was > 30 µM.

Turning to `CCCC[C@H](NC(=O)[C@H](CC(C)C)NC(=O)[C@@H](NC(=O)[C@H](CCC(=O)O)NC(=O)[C@H](CCC(=O)O)NC(=O)[C@H](CO)NC(=O)[C@@H](NC(=O)[C@H](Cc1ccccc1)NC(C)=O)[C@@H](C)CC)C(C)C)C(=O)N[C@@]1(C)CCCC=CCCC[C@@](C)(C(=O)N[C@@H](CCCC)C(=O)N[C@@H](C)C(=O)N[C@@H](CC(C)C)C(=O)N[C@@H](CC(=O)O)C(=O)N[C@@H](CCCNC(=N)N)C(=O)N[C@H](C(N)=O)[C@@H](C)CC)NC(=O)[C@H]([C@@H](C)CC)NC(=O)[C@H](C(C)C)NC(=O)[C@H](CC(C)C)NC1=O` [SP-46] (Ac-FISEEVL[Nle][S5]LVI[S5][Nle]ALDRI-NH2; staple 9-13), the “18 h Avg % max inhibition at top conc” value is on record as “+++ (≤25 but <50: +++)” and the EC50 lay in the range of 15 to 30 µM.

Take `CC[C@H](C)[C@H](NC(=O)[C@H](CCCNC(=N)N)NC(=O)[C@H](CC(=O)O)NC(=O)[C@H](CC(C)C)NC(=O)CNC(=O)[C@H](CCSC)NC(=O)[C@]1(C)CCCC=CCCC[C@](C)(NC(=O)[C@H](CCSC)NC(=O)[C@H](CC(C)C)NC(=O)[C@@H](NC(=O)[C@H](CCC(=O)O)NC(=O)[C@H](CCC(=O)O)NC(=O)[C@H](CC(=O)O)NC(C)=O)C(C)C)C(=O)N[C@@H](CC(C)C)C(=O)N[C@@H](C(C)C)C(=O)N[C@@H]([C@@H](C)CC)C(=O)N1)C(=O)N[C@@H](CCCCN)C(=O)N[C@@H](CCC(=O)O)C(=O)N[C@@H](CC(C)C)C(=O)N1CCC[C@H]1C(=O)N[C@@H](CCC(=O)O)C(=O)N[C@@H](CC(C)C)C(=O)N[C@@H](Cc1c[nH]c2ccccc12)C(=O)N[C@@H](CC(C)C)C(N)=O` [SP-87] (Ac-DEEVLM[S5]LVI[S5]MGLDRIKELPELWL-NH2; staple 7-11): the “18 h Avg % max inhibition at top conc” value was “++++ (≥50: ++++)” and the EC50 lay within 15 to 30 µM.

Consider `CCCC[C@H](NC(=O)[C@H](CC(C)C)NC(=O)[C@@H](NC(=O)[C@H](CCC(=O)O)NC(=O)[C@H](CCC(=O)O)NC(=O)[C@H](CC(=O)O)NC(=O)[C@@H](NC(=O)[C@H](Cc1ccccc1)NC(C)=O)[C@@H](C)CC)C(C)C)C(=O)N[C@@]1(C)CCCC=CCCC[C@@](C)(C(=O)N[C@@H](CCCC)C(=O)N[C@@H](C)C(=O)N[C@@H](CC(C)C)C(=O)N[C@@H](CC(=O)O)C(=O)N[C@@H](CCCNC(=N)N)C(=O)N[C@H](C(N)=O)[C@@H](C)CC)NC(=O)[C@H](CCC(=O)O)NC(=O)[C@H](C(C)C)NC(=O)[C@H](CC(C)C)NC1=O` [SP-37] (Ac-FIDEEVL[Nle][S5]LVE[S5][Nle]ALDRI-NH2; staple 9-13), for which the “18 h Avg % max inhibition at top conc” value is listed as “+ (<10: +)” and the EC50 is > 30 µM.

Turning to `CCCC[C@H](NC(=O)[C@H](CC(C)C)NC(=O)[C@H](C)NC(=O)[C@H](CCC(=O)O)NC(=O)[C@H](CCC(=O)O)NC(=O)[C@H](CC(=O)O)NC(=O)[C@@H](NC(=O)[C@H](Cc1ccccc1)NC(C)=O)[C@@H](C)CC)C(=O)N[C@@]1(C)CCCC=CCCC[C@@](C)(C(=O)N[C@@H](CCCC)C(=O)N[C@@H](C)C(=O)N[C@@H](CC(C)C)C(=O)N[C@@H](CC(=O)O)C(=O)N[C@@H](CCCNC(=N)N)C(=O)N[C@H](C(N)=O)[C@@H](C)CC)NC(=O)[C@H]([C@@H](C)CC)NC(=O)[C@H](C(C)C)NC(=O)[C@H](CC(C)C)NC1=O` [SP-14] (Ac-FIDEEAL[Nle][S5]LVI[S5][Nle]ALDRI-NH2; staple 9-13), the “18 h Avg % max inhibition at top conc” value is on record as “++++ (≥50: ++++)” and the EC50 lay in the range of 5 to 15 µM.

Turning to `CCCC[C@H](NC(=O)[C@H](CC(C)C)NC(=O)[C@@H](NC(=O)[C@H](CCC(=O)O)NC(=O)[C@H](CCC(=O)O)NC(=O)[C@H](CC(=O)O)NC(=O)[C@H](CO)NC(=O)[C@H](Cc1ccccc1)NC(C)=O)C(C)C)C(=O)N[C@@]1(C)CCCC=CCCC[C@@](C)(C(=O)N[C@@H](CCCC)C(=O)N[C@@H](C)C(=O)N[C@@H](CC(C)C)C(=O)N[C@@H](CC(=O)O)C(=O)N[C@@H](CCCNC(=N)N)C(=O)N[C@H](C(N)=O)[C@@H](C)CC)NC(=O)[C@H]([C@@H](C)CC)NC(=O)[C@H](C(C)C)NC(=O)[C@H](CC(C)C)NC1=O` [SP-45] (Ac-FSDEEVL[Nle][S5]LVI[S5][Nle]ALDRI-NH2; staple 9-13), the “18 h Avg % max inhibition at top conc” value is “++ (≤10 but <25: ++)” and the EC50 was > 30 µM.

As to `CCCC[C@H](NC(=O)[C@H](CC(C)C)NC(=O)[C@@H](NC(=O)[C@H](C)NC(=O)[C@H](CCC(=O)O)NC(=O)[C@H](CC(=O)O)NC(=O)[C@@H](NC(=O)[C@H](Cc1ccccc1)NC(C)=O)[C@@H](C)CC)C(C)C)C(=O)N[C@@]1(C)CCCC=CCCC[C@@](C)(C(=O)N[C@@H](CCCC)C(=O)N[C@@H](C)C(=O)N[C@@H](CC(C)C)C(=O)N[C@@H](CC(=O)O)C(=O)N[C@@H](CCCNC(=N)N)C(=O)N[C@H](C(N)=O)[C@@H](C)CC)NC(=O)[C@H]([C@@H](C)CC)NC(=O)[C@H](C(C)C)NC(=O)[C@H](CC(C)C)NC1=O` [SP-13] (Ac-FIDEAVL[Nle][S5]LVI[S5][Nle]ALDRI-NH2; staple 9-13), the “18 h Avg % max inhibition at top conc” value is “++++ (≥50: ++++)” and the EC50 is 5 to 15 µM.

With `CCCC[C@H](NC(=O)[C@H](CC(C)C)NC(=O)[C@@H](NC(=O)[C@H](CCC(=O)O)NC(=O)[C@H](CCC(=O)O)NC(=O)[C@H](CC(=O)O)NC(=O)[C@@H](NC(=O)[C@H](Cc1ccccc1)NC(C)=O)[C@@H](C)CC)C(C)C)C(=O)N[C@@]1(C)CCCC=CCCC[C@@](C)(C(=O)N[C@@H](CCCC)C(=O)N[C@@H](C)C(=O)N[C@@H](CC(C)C)C(=O)N[C@@H](CC(=O)O)C(=O)N[C@@H](CCCNC(=N)N)C(=O)N[C@H](C(N)=O)[C@@H](C)CC)NC(=O)[C@H]([C@@H](C)CC)NC(=O)[C@H](C(C)C)NC(=O)[C@H](CO)NC1=O` [SP-51] (Ac-FIDEEVL[Nle][S5]SVI[S5][Nle]ALDRI-NH2; staple 9-13), the “18 h Avg % max inhibition at top conc” value was “+++ (≤25 but <50: +++)” and the EC50 was 5 to 15 µM.

For the origin of these results see US20190225650A1, “PEPTIDOMIMETIC MACROCYCLES AND USE THEREOF IN REGULATING HIF1ALPHA” (AILERON THERAPEUTICS, INC., priority 2013, published 2019).
